Results reported in paper PMC9898036, “VIP152 is a selective CDK9 inhibitor with pre-clinical in vitro and in vivo efficacy in chronic lymphocytic leukemia” (Leukemia, 2022).
Where two headings read alike, the source gives them in different places.

Columns and labels:
Assay in all cases: DiscoverX KINOMEscan kinase profiling (468 assays)
Assay type in all cases: binding
human kinome [1] = target: human kinome (Homo sapiens, UniProt P28482); conditions: ERK2 (Entrez MAPK1); 100 nM; read-out: Percent Control
Method in brief: (§1)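 DNA-tagged kinases competed for immobilized biotinylated ligands on streptavidin magnetic beads, with bound kinase quantified by qPCR. VIP152 in DMSO was tested against a DMSO control.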

human kinome [2] = target: human kinome (Homo sapiens, UniProt Q9NWZ3); conditions: IRAK4; 100 nM; read-out: Percent Control
Method in brief: as §1

human kinome [3] = target: human kinome (Homo sapiens, UniProt Q15208); conditions: read-out: Percent Control
human kinome (Homo sapiens, UniProt Q15208), sequence (Q15208 whole entry): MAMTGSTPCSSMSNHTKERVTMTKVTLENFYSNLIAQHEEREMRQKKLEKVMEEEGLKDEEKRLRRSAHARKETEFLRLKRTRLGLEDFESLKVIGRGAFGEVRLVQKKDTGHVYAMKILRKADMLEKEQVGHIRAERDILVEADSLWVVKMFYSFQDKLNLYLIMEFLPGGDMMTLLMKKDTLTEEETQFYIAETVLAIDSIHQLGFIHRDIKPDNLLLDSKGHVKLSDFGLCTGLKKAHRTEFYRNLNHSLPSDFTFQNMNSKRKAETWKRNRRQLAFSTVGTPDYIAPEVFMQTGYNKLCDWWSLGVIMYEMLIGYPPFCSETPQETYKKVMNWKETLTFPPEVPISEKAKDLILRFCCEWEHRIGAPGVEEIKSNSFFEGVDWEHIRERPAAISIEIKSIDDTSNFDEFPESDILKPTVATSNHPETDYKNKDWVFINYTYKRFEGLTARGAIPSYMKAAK
Method in brief: as §1

human kinome [4] = target: human kinome (Homo sapiens, UniProt Q9H0K1); conditions: kinase SIK2 (Entrez SIK2); compound concentration 1000 nM; read-out: Percent Control
Method in brief: as §1

human kinome [5] = target: human kinome (Homo sapiens, UniProt Q13237); conditions: read-out: Percent Control
human kinome (Homo sapiens, UniProt Q13237), sequence (Q13237 whole entry): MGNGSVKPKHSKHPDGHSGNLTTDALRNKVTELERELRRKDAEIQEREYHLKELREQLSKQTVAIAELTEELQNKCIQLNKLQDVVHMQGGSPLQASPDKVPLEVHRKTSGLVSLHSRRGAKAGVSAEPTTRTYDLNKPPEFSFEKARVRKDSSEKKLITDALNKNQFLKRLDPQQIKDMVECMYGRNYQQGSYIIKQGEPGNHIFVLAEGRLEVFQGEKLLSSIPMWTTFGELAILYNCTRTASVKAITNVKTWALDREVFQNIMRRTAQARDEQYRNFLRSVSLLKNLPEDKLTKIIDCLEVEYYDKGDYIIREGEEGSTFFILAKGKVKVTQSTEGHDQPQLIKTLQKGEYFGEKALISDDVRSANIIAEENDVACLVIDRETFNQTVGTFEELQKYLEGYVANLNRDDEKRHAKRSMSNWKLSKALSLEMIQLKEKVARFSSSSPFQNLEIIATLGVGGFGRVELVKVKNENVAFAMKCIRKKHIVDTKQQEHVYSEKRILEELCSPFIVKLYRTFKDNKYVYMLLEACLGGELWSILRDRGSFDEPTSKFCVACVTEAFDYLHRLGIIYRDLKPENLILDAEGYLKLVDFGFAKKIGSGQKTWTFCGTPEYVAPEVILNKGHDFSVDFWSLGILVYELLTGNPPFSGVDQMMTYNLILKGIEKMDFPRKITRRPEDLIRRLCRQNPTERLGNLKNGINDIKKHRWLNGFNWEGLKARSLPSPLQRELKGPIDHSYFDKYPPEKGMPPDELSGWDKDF
Method in brief: as §1

human kinome [6] = target: human kinome (Homo sapiens, UniProt Q96SB4); conditions: kinase SRPK1 (Entrez SRPK1); compound concentration 1000 nM; read-out: Percent Control
Method in brief: as §1

human kinome [7] = target: human kinome (Homo sapiens, UniProt Q13627); conditions: DYRK1A; 100 nM; read-out: Percent Control
Method in brief: as §1

human kinome [8] = target: human kinome (Homo sapiens, UniProt Q9UL54); conditions: kinase TAOK2 (Entrez TAOK2); compound concentration 1000 nM; read-out: Percent Control
Method in brief: as §1

human kinome [9] = target: human kinome (Homo sapiens, UniProt P36507); conditions: MEK2 (Entrez MAP2K2); 100 nM; read-out: Percent Control
Method in brief: as §1

human kinome [10] = target: human kinome (Homo sapiens, UniProt Q96D53); conditions: ADCK4; 100 nM; read-out: Percent Control
Method in brief: as §1

human kinome [11] = target: human kinome (Homo sapiens, UniProt Q8TD08); conditions: ERK8 (Entrez MAPK15); 100 nM; read-out: Percent Control
Method in brief: as §1

human kinome [12] = target: human kinome (Homo sapiens, UniProt Q08345); conditions: DDR1; 100 nM; read-out: Percent Control
human kinome (Homo sapiens, UniProt Q08345), sequence (Q08345 19-913): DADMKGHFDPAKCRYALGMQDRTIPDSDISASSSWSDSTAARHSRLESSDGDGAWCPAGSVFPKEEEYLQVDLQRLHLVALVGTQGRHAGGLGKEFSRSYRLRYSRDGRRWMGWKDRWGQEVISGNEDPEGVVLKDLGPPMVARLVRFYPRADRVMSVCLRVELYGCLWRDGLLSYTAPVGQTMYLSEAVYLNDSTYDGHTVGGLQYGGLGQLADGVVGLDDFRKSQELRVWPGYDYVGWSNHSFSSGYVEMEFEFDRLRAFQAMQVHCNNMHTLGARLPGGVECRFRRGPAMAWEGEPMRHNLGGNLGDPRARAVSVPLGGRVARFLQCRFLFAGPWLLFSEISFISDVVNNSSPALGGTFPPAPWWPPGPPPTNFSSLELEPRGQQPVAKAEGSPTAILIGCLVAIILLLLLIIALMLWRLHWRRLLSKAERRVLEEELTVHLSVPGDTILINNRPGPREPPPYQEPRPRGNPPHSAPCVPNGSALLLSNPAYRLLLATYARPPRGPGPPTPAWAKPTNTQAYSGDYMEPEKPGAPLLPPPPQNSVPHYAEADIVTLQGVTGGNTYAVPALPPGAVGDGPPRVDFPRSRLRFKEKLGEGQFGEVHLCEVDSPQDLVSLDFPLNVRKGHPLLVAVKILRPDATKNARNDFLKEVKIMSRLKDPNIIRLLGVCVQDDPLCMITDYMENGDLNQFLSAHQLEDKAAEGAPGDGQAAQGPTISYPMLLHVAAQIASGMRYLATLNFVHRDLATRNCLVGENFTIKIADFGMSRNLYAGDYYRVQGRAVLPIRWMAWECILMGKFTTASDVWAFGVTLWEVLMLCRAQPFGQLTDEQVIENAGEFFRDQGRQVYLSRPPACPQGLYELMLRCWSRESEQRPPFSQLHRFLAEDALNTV
Method in brief: as §1

human kinome [13] = target: human kinome (Homo sapiens, UniProt Q9HCP0); conditions: CSNK1G1; 100 nM; read-out: Percent Control
Method in brief: as §1

human kinome [14] = target: human kinome (Homo sapiens, UniProt P07947); conditions: kinase YES (Entrez YES1); compound concentration 1000 nM; read-out: Percent Control
Method in brief: as §1

human kinome [15] = target: human kinome (Homo sapiens, UniProt P0C1S8); conditions: kinase WEE2 (Entrez WEE2); compound concentration 1000 nM; read-out: Percent Control
Method in brief: as §1

human kinome [16] = target: human kinome (Homo sapiens, UniProt P09619); conditions: read-out: Percent Control
human kinome (Homo sapiens, UniProt P09619), sequence (P09619 33-1106): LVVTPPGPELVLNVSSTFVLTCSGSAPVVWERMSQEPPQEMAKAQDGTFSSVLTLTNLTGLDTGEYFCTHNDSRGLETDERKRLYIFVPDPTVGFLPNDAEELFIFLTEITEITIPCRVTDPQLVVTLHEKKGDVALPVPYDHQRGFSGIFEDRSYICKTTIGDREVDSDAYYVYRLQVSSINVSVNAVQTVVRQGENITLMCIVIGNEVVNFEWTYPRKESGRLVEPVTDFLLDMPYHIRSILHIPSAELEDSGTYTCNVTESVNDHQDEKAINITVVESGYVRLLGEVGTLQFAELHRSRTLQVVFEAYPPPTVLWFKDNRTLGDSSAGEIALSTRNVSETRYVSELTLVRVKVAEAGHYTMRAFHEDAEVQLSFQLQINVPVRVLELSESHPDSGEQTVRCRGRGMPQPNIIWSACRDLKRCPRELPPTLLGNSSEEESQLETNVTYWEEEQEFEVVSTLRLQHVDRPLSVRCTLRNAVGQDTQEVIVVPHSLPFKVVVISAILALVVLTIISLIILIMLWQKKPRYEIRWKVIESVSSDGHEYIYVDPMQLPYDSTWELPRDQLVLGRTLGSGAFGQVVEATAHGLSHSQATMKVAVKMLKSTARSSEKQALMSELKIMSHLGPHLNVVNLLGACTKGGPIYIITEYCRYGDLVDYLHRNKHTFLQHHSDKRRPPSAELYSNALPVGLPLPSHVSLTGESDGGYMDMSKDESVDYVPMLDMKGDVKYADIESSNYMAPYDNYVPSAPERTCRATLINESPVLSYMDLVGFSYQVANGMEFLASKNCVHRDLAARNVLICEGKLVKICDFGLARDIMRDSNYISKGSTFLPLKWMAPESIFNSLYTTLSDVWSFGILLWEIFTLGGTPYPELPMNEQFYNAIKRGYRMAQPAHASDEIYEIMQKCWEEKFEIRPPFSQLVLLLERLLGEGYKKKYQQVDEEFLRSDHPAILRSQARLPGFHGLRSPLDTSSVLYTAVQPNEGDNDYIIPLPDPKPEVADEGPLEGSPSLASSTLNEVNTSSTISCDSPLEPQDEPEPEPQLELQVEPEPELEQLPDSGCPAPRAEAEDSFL
Method in brief: as §1

human kinome [17] = target: human kinome (Homo sapiens, UniProt Q04771); conditions: ACVR1; 100 nM; read-out: Percent Control
Method in brief: as §1

human kinome [18] = target: human kinome (Homo sapiens, UniProt Q9HC98); conditions: read-out: Percent Control
human kinome (Homo sapiens, UniProt Q9HC98), sequence (Q9HC98 whole entry): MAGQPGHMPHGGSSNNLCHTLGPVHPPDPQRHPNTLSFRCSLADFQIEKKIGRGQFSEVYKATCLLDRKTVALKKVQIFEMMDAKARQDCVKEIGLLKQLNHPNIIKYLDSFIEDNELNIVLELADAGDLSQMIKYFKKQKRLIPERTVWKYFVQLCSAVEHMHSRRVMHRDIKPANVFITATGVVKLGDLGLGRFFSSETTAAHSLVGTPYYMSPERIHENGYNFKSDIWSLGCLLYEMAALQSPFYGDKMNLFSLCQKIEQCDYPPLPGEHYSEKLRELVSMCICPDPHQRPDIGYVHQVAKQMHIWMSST
Method in brief: as §1

human kinome [19] = target: human kinome (Homo sapiens, UniProt Q15418); conditions: compound concentration 1000 nM, read-out: Percent Control
human kinome (Homo sapiens, UniProt Q15418), sequence (Q15418 whole entry): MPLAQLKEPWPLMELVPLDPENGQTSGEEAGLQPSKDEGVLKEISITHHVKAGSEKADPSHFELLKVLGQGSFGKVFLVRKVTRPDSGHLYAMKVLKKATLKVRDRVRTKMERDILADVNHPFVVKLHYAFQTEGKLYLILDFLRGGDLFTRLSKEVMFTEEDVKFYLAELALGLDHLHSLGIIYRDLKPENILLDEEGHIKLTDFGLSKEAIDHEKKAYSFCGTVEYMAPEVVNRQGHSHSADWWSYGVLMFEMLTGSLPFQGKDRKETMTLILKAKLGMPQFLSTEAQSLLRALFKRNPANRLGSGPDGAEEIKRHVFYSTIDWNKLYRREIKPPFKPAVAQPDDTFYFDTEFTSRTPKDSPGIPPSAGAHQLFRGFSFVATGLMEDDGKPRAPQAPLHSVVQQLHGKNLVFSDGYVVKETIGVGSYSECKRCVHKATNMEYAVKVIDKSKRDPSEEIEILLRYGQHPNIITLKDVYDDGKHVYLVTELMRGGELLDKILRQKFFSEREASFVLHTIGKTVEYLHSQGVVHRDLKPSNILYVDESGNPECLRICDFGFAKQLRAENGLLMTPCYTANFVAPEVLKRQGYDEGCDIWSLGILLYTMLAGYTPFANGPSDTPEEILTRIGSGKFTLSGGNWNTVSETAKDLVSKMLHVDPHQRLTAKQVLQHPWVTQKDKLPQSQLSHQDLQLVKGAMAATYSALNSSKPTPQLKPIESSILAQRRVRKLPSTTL
Method in brief: as §1

human kinome [20] = target: human kinome (Homo sapiens, UniProt P46734); conditions: MEK3 (Entrez MAP2K3); 100 nM; read-out: Percent Control
Method in brief: as §1

human kinome [21] = target: human kinome (Homo sapiens, UniProt Q16620); conditions: kinase TRKB (Entrez NTRK2); compound concentration 1000 nM; read-out: Percent Control
Method in brief: as §1

human kinome [22] = target: human kinome (Homo sapiens, UniProt Q15375); conditions: EPHA7; 100 nM; read-out: Percent Control
Method in brief: as §1

human kinome [23] = target: human kinome (Homo sapiens, UniProt Q8N568); conditions: DCAMKL2 (Entrez DCLK2); 100 nM; read-out: Percent Control
Method in brief: as §1

human kinome [24] = target: human kinome (Homo sapiens, UniProt Q8N4C8); conditions: MINK (Entrez MINK1); 100 nM; read-out: Percent Control
Method in brief: as §1

human kinome [25] = target: human kinome (Homo sapiens, UniProt Q96Q40); conditions: read-out: Percent Control
human kinome (Homo sapiens, UniProt Q96Q40), sequence (Q96Q40 whole entry): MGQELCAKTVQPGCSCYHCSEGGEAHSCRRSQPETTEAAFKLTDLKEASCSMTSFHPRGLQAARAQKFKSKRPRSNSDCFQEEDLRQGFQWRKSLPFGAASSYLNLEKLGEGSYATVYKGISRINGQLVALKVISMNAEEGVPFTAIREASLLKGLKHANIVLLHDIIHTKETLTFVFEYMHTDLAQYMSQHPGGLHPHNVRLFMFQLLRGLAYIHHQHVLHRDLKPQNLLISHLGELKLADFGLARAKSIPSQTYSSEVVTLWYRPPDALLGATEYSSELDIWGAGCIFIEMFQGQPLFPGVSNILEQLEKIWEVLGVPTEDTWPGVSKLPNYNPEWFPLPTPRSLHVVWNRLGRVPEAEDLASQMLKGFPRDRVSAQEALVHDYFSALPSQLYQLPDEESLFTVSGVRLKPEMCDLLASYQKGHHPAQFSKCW
Method in brief: as §1

human kinome [26] = target: human kinome (Homo sapiens, UniProt P36897); conditions: kinase TGFBR1 (Entrez TGFBR1); compound concentration 1000 nM; read-out: Percent Control
Method in brief: as §1

human kinome [27] = target: human kinome (Homo sapiens, UniProt Q9Y616); conditions: IRAK3; 100 nM; read-out: Percent Control
Method in brief: as §1

human kinome [28] = target: human kinome (Homo sapiens, UniProt P00533, DEL746-750); conditions: EGFR(E746-A750del); 100 nM; read-out: Percent Control
Method in brief: as §1

human kinome [29] = target: human kinome (Homo sapiens, UniProt Q8TDX7); conditions: read-out: Percent Control
human kinome (Homo sapiens, UniProt Q8TDX7), sequence (Q8TDX7 whole entry): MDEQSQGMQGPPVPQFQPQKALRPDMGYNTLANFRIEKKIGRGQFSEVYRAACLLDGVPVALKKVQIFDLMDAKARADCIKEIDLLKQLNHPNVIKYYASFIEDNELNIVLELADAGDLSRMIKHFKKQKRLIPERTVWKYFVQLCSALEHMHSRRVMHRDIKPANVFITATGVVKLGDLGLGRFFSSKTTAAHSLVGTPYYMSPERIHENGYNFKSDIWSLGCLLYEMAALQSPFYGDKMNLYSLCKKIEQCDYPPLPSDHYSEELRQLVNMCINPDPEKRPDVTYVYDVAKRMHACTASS
Method in brief: as §1

In the case of COc1cc(F)ccc1-c1cc(Nc2cc(CS(C)(=N)=O)ccn2)ncc1F (stereo not drawn) [VIP152], the remaining binding at 0.1 µM (human kinome [1]) is reported as 100%, the remaining binding at 0.1 µM (human kinome [2]) is reported as 100% and the remaining binding at 0.1 µM (human kinome [3]; NDR1 (Entrez STK38), 100 nM) is reported as 100%. For the same molecule, the remaining binding at 1 µM (human kinome [3]; kinase NDR1 (Entrez STK38), compound concentration 1000 nM) was 93%, the remaining binding at 1 µM (human kinome [4]) was 79% and the remaining binding at 0.1 µM (human kinome [5]; PRKG2, 100 nM) was 100%. For the same molecule, the remaining binding at 1 µM (human kinome [5]; kinase PRKG2 (Entrez PRKG2), compound concentration 1000 nM) was 100%, the remaining binding at 1 µM (human kinome [6]) was 91% and the remaining binding at 0.1 µM (human kinome [7]) was 64%. The remaining binding at 1 µM (human kinome [8]) was 67%, the remaining binding at 0.1 µM (human kinome [9]) was 100% and the remaining binding at 0.1 µM (human kinome [10]) was 100%. It also gave a remaining binding at 0.1 µM (human kinome [11]) of 94%, a remaining binding at 0.1 µM (human kinome [12]) of 99% and a remaining binding at 0.1 µM (human kinome [13]) of 100%. The remaining binding at 1 µM (human kinome [14]) was 86%, the remaining binding at 1 µM (human kinome [15]) was 89% and the remaining binding at 0.1 µM (human kinome [16]; PDGFRB, 100 nM) was 100%. It also gave a remaining binding at 1 µM (human kinome [16]; kinase PDGFRB (Entrez PDGFRB), compound concentration 1000 nM) of 71%, a remaining binding at 0.1 µM (human kinome [17]) of 100% and a remaining binding at 0.1 µM (human kinome [18]; NEK6, 100 nM) of 100%. It also gave a remaining binding at 1 µM (human kinome [18]; kinase NEK6 (Entrez NEK6), compound concentration 1000 nM) of 93%, a remaining binding at 1 µM (human kinome [19]; kinase RSK1(Kin.Dom.1-N-terminal) (Entrez RPS6KA1)) of 95% and a remaining binding at 1 µM (human kinome [19]; kinase RSK1(Kin.Dom.2-C-terminal) (Entrez RPS6KA1)) of 89%. For the same molecule, the remaining binding at 0.1 µM (human kinome [20]) was 100%, the remaining binding at 1 µM (human kinome [21]) was 30% and the remaining binding at 0.1 µM (human kinome [22]) was 100%. It also gave a remaining binding at 0.1 µM (human kinome [23]) of 100%, a remaining binding at 0.1 µM (human kinome [24]) of 100% and a remaining binding at 0.1 µM (human kinome [25]; PFTAIRE2 (Entrez CDK15), 100 nM) of 100%. The remaining binding at 1 µM (human kinome [25]; kinase PFTAIRE2 (Entrez CDK15), compound concentration 1000 nM) was 70%, the remaining binding at 1 µM (human kinome [26]) was 91% and the remaining binding at 0.1 µM (human kinome [27]) was 90%. The remaining binding at 0.1 µM (human kinome [28]) was 100%, the remaining binding at 0.1 µM (human kinome [29]; NEK7, 100 nM) was 100% and the remaining binding at 1 µM (human kinome [29]; kinase NEK7 (Entrez NEK7), compound concentration 1000 nM) was 94%.
